Measured values published in paper PMC6710338, “Turning a Collagenesis-Inducing Peptide Into a Potent Antibacterial and Antibiofilm Agent Against Multidrug-Resistant Gram-Negative Bacteria” (Frontiers in Microbiology, 2019).
Peptide text beside a SMILES is read from it.

Columns and labels:
[1] = tested on: P. aeruginosa ATCC 27853; assay: MIC, broth microdilution (CLSI), ATCC reference strain; assay type: cell-based, Pseudomonas aeruginosa
Protocol: (§1) The minimum inhibitory concentration (MIC) of synthetic peptides was determined using the broth microdilution method in cation-adjusted Mueller-Hinton broth (MHB2 – Sigma-Aldrich, St. Louis, MO, United States), according to the recommendations of the Clinical and Laboratory Standards Institute ([CLSI, 2012]), against four reference strains, namely, P. aeruginosa ATCC 27853, E. coli ATCC 25922, S. aureus ATCC 25923 and Enterococcus faecalis ATCC 29212. MIC values of peptide 3.1-PP4 were also determined against MDR clinical isolates of P. aeruginosa (PA002, PA004, Pa3, Pa4), E. coli (Ec1, Ec2, EC001, EC002, EC003) and K. pneumoniae (KP004, KP007, KP010). The peptides were tested in the concentration range of 1–1024 μg/mL. The minimum bactericidal concentration (MBC) was determined as previously reported ([Bessa et al., 2018]). According to CLSI guidelines for antimicrobial susceptibility testing, MIC values were determined for all peptides against ATCC reference strains of two Gram-positive (S. aureus ATCC 25923 and E. faecalis ATCC 29212), and two Gram-negative (P. aeruginosa ATCC 27853 and E. coli ATCC 25922) bacterial species, and are shown in Table 2.

[2] = tested on: preformed biofilms of MDR P. aeruginosa isolates; assay: Effect on 24 h preformed biofilms (OD600 of planktonic phase); assay type: cell-based, Pseudomonas aeruginosa; conditions: 20 × MIC, vs non-treated biofilm
Protocol: The efficacy of peptide 3.1-PP4 on 24 h preformed biofilms of PA002, PA004, KP004, KP007, and KP010 was also evaluated ([Gomes et al., 2014]). Briefly, biofilms were grown in TSB from a starting inoculum of 1 × 10^6 CFU/mL in 96-well microtiter plates. […] The optical density at 600 nm (OD600) was measured at time 0 and after incubation for 24 h at 37°C. The reduction in the biofilm proliferation was calculated in comparison to the respective non-treated biofilms. Two independent experiments were performed in triplicate.
In the case of control biofilms, the second 24 h growth period occurred in the absence of the peptide. Based on the apparent higher efficiency of peptide 3.1-PP4 to inhibit the formation of K. pneumoniae than P. aeruginosa biofilms, only two MDR isolates of the latter were included in this assay, whereas three MDR K. pneumoniae were tested. Optical density of the planktonic phase, as a measure of biofilm proliferation, was reduced in all peptide-treated biofilms, ranging from 3 to 21% reduction on P. aeruginosa isolates, and from 34 to 56% reduction on K. pneumoniae isolates (Table 4).

[3] = tested on: multidrug-resistant isolates of Klebsiella pneumoniae, E. coli, and P. aeruginosa; assay type: cell-based
Protocol: as §1, with “2018]).” for “2018]). According to CLSI guidelines for antimicrobial susceptibility testing, MIC values were determined for all peptides against ATCC reference strains of two Gram-positive (S. aureus ATCC 25923 and E. faecalis ATCC 29212), and two Gram-negative (P. aeruginosa ATCC 27853 and E. coli ATCC 25922) bacterial species, and are shown in Table 2.”
In view of the above results, peptide conjugate 3.1-PP4 was selected for further investigation of its activity against MDR isolates of three Gram-negative bacterial species, namely, P. aeruginosa (four isolates), E. coli (five isolates), and K. pneumoniae (four isolates), whose antimicrobial resistance patterns are provided in the Supplementary Table S1. […]

[4] = tested on: MDR K. pneumoniae isolates (KP004, KP007, KP010); assay: Inhibition of biofilm formation, crystal violet assay; assay type: cell-based, Klebsiella pneumoniae; conditions: in TSB
Protocol: The ability of peptide 3.1-PP4 to inhibit the biofilm formation by three P. aeruginosa isolates (PA002, PA004, Pa3) and by three K. pneumoniae isolates (KP004, KP007 and KP010) was assessed at concentrations equal to the MIC, 1/2 × MIC and 1/4 × MIC in tryptic soy broth – (TSB – Liofilchem s.r.l., Italy) using the crystal violet assay as reported by [Gomes et al. (2014)]. Two independent experiments were performed in triplicate.
Some of the MDR isolates of P. aeruginosa and K. pneumoniae were randomly selected to form biofilms in the absence (controls) and presence (at MIC, 1/2 × MIC and 1/4 × MIC) of the peptide 3.1-PP4. In this assay, the test compounds were used at sub-inhibitory concentrations, since if they had been present at the MIC or higher concentrations, bacteria would be killed before starting to produce the biofilms.
FIGURE 1 Biofilm biomass quantitation of biofilms formed in the presence of peptide 3.1-PP4. Biofilms of three MDR P. aeruginosa (PA002, Pa3, and PA004) and of three MDR K. pneumoniae (KP004, KP007, and KP010) were formed in the presence of the peptide at three different concentrations, MIC, 1/2 × MIC, and 1/4 × MIC. Control biofilms were grown in absence of the peptide. Two independent experiments were performed in triplicate. Error bars represent SD. […]

- MIC ([1]; ATCC 27853): 2.1 µM
- MIC ([1]; P. aeruginosa ATCC 27853, broth microdilution in MHB2, CLSI, range tested 1–1024 μg/mL): 4 µg/mL
- MIC ([1]; P. aeruginosa ATCC 27853, broth microdilution in MHB2, CLSI, value in parentheses): 2 µM
- MIC values against multidrug-resistant isolates [3]: 0.5 to 4.1 µM
SMILES: CC(C)C[C@H](NC(=O)[C@H](Cc1c[nH]c2ccccc12)NC(=O)[C@H](CCCCN)NC(=O)[C@H](CC(C)C)NC(=O)[C@H](CC(C)C)NC(=O)[C@H](CCCCN)NC(=O)[C@@H](N)CCCCN)C(=O)N[C@@H](CC(C)C)C(=O)N[C@@H](CCCCN)C(=O)N[C@@H](CC(C)C)C(=O)N[C@@H](CC(C)C)C(=O)N[C@@H](CCCCN)C(=O)N[C@H](C(=O)N[C@H](C(=O)N[C@@H](CCCCN)C(=O)N[C@@H](CO)C(N)=O)[C@@H](C)O)[C@@H](C)O [Peptide 3.1-PP4] (H-KKLLKWLLKLLKTTKS-NH2; N-terminus assumed)
- % reduction in biofilm proliferation upon treatment ([2]; isolate PA002, 24 h preformed biofilm): 2.8%
- % reduction in biofilm proliferation upon treatment ([2]; isolate PA004, 24 h preformed biofilm): 21%
- biofilm formation (crystal violet absorbance at 595 nm) ([4]; peptide at MIC, K. pneumoniae isolates): no biofilm was actually produced
- biofilm formation (crystal violet absorbance at 595 nm) ([4]; peptide at sub-inhibitory concentrations (1/2 and 1/4 of the MIC), vs control biofilm): able to reduce the biofilm formed
